Measurements reported in patent US10758534B2 (Vertex Pharmaceuticals Incorporated, priority 2014, dated 2020).

Biological target: T1, F508del (Homo sapiens, UniProt P13569, DEL508-508)
T1 construct: expressed in transfected cells
Assay: Protocol 1: membrane potential optical assay (FLIPR III, voltage sensing dye), identification of potentiator compounds
Format: cell-based
Settings: Table 3, compounds of Table 1
How it was run: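 Read-out: change in voltage-sensing dye fluorescence (FLIPR III) as a measure of F508del conductance. Temperature-corrected (27° C, 24 hrs) NIH 3T3 cells expressing F508del are pretreated with potentiators, dye-loaded, then stimulated with forskolin under a chloride ion gradient using chloride-free gluconate bath.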

T1 sequence (P13569 with tags, fused parts or gaps DEL508-508): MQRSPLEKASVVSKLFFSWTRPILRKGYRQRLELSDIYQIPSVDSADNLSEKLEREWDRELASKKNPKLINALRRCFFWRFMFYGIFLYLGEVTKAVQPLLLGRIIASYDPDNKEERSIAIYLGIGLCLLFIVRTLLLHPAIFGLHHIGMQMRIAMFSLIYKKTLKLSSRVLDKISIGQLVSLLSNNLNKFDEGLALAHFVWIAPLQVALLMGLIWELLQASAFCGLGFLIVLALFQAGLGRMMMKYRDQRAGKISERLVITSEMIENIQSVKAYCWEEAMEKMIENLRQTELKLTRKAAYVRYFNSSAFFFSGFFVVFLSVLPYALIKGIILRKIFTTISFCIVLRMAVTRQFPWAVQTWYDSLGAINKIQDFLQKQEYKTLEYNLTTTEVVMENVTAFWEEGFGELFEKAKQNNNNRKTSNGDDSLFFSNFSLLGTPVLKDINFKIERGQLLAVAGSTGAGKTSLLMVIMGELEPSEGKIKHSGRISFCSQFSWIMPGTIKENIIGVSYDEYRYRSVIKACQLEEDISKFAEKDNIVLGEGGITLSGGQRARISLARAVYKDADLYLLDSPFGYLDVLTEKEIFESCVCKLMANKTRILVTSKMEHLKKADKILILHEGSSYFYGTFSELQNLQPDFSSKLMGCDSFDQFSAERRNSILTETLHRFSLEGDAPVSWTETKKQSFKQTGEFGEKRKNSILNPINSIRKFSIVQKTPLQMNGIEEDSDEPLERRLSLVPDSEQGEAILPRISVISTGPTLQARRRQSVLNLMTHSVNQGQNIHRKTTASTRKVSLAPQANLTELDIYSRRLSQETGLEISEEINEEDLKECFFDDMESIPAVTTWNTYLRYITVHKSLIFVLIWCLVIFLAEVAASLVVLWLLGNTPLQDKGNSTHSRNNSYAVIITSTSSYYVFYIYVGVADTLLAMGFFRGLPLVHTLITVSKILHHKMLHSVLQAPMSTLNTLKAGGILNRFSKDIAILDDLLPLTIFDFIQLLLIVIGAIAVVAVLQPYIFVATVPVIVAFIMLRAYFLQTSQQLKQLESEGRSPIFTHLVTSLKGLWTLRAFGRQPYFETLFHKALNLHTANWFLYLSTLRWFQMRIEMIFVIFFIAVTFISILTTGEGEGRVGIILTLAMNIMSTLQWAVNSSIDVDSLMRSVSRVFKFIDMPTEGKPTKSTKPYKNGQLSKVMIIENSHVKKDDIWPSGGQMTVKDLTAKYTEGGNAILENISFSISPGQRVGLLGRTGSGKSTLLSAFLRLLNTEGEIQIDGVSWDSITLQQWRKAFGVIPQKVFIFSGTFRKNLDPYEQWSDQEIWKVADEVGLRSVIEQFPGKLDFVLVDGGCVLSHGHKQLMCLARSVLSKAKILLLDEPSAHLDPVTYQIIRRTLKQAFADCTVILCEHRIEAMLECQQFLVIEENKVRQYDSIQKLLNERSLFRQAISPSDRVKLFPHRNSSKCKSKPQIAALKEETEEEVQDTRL

Row | EC30 | Structure (SMILES)
1 | +++ (“+++” means <3 uM) | Cc1cc(C)c(Oc2nc(C(C)(C)C)ccc2C(=O)NS(=O)(=O)c2nccnc2N)c(C)c1 [Compound 1208, N-(3-aminopyrazin-2-yl) sulfonyl-6-tert-butyl-2-(2,4,6-trimethylphenoxy)pyridine-3-carboxamide]
2 | +++ (“+++” means <3 uM) | C[C@@H]1CN(c2nc(C3=CC(C)(C)OCC3)ccc2C(=O)NS(=O)(=O)c2cccc(N)n2)C(C)(C)C1 [Compound 1369, N-[(6-amino-2-pyridyl)sulfonyl]-6-(6,6-dimethyl-2,3-dihydropyran-4-yl)-2-[(4S)-2,2,4-trimethylpyrrolidin-1-yl]pyridine-3-carboxamide]
3 | +++ (“+++” means <3 uM) | Cc1ccccc1-c1cnc(N2CC(C)CC2(C)C)c(C(=O)NS(=O)(=O)c2cccc(N)n2)c1 (centres unmarked) [Compound 1701, N-[(6-amino-2-pyridyl)sulfonyl]-5-(o-tolyl)-2-(2,2,4-trimethylpyrrolidin-1-yl)pyridine-3-carboxamide]
4 | ++ (“++” means between 3 uM and 10 uM) | Cc1cc(C)c(Oc2nc(-c3ccc4ccn(C)c4c3)ccc2C(=O)NS(=O)(=O)c2ccc[nH]c2=O)c(C)c1 [Compound 936, 6-(1-methylindol-6-yl)-N-[(2-oxo-1H-pyridin-3-yl)sulfonyl]-2-(2,4,6-trimethylphenoxy)pyridine-3-carboxamide]
5 | +++ (“+++” means <3 uM) | Cc1cc(C)c(Oc2nc(C3=CC(C)(C)CCC3=O)ccc2C(=O)NS(=O)(=O)c2cccc(N)n2)c(C)c1 [Compound 1598, N-[(6-amino-2-pyridyl)sulfonyl]-6-(3,3-dimethyl-6-oxo-cyclohexen-1-yl)-2-(2,4,6-trimethylphenoxy)pyridine-3-carboxamide]
6 | +++ (“+++” means <3 uM) | C=Cc1cc(C(=O)NS(=O)(=O)c2cccc(N)n2)c(N2C[C@@H](C)CC2(C)C)nc1C(C)(C)C [Compound 1373, N-[(6-amino-2-pyridyl)sulfonyl]-6-tert-butyl-2-[(4S)-2,2,4-trimethylpyrrolidin-1-yl]-5-vinyl-pyridine-3-carboxamide]
7 | +++ (“+++” means <3 uM) | Cc1cc(C)c(Oc2ncc(-c3ccccc3C(C)(C)C)cc2C(=O)NS(=O)(=O)c2cccc(N)n2)c(C)c1 [Compound 868, N-[(6-amino-2-pyridyl)sulfonyl]-5-(2-tert-butylphenyl)-2-(2,4,6-trimethylphenoxy)pyridine-3-carboxamide]
8 | ++ (“++” means between 3 uM and 10 uM) | Cc1ccc(-c2nc(C(C)(C)C)ccc2C(=O)NS(=O)(=O)c2ccc(C)cn2)cc1 [Compound 1355, 6-tert-butyl-N-[(5-methyl-2-pyridyl)sulfonyl]-2-(p-tolyl)pyridine-3-carboxamide]
9 | +++ (“+++” means <3 uM) | C[C@@H]1CN(c2nc(C3=CCCN(C(=O)OC(C)(C)C)C3)ccc2C(=O)NS(=O)(=O)c2cccc(N)n2)C(C)(C)C1 [Compound 1371, tert-butyl 5-[5-[(6-amino-2-pyridyl)sulfonylcarbamoyl]-6-[(4S)-2,2,4-trimethylpyrrolidin-1-yl]-2-pyridyl]-3,6-dihydro-2H-pyridine-1-carboxylate]
10 | +++ (“+++” means <3 uM) | Cc1cc(C)c(Oc2nc(C3(C)CC3)ccc2C(=O)NS(=O)(=O)c2ccc[nH]c2=O)c(C)c1 [Compound 1226, 6-(1-methylcyclopropyl)-N-[(2-oxo-1H-pyridin-3-yl)sulfonyl]-2-(2,4,6-trimethylphenoxy)pyridine-3-carboxamide]
11 | +++ (“+++” means <3 uM) | COc1cc(F)c(-c2ccc(C(=O)NS(=O)(=O)c3cccc(N)n3)c(Oc3c(C)cc(C)cc3C)n2)cc1F [Compound 984, N-[(6-amino-2-pyridyl)sulfonyl]-6-(2,5-difluoro-4-methoxy-phenyl)-2-(2,4,6-trimethylphenoxy)pyridine-3-carboxamide]
12 | +++ (“+++” means <3 uM) | Cc1cc(C)c(Oc2nc(C3=CC4CCC3C4)ccc2C(=O)NS(=O)(=O)c2cccc(N)n2)c(C)c1 (centres unmarked) [Compound 1518, N-[(6-amino-2-pyridyl)sulfonyl]-6-(3-bicyclo[2.2.1]hept-2-enyl)-2-(2,4,6-trimethylphenoxy)pyridine-3-carboxamide]
13 | +++ (“+++” means <3 uM) | Cc1ccc(-c2ccc(C(=O)NS(=O)(=O)c3cccnc3N)c(N3C[C@@H](C)CC3(C)C)n2)c(C)c1 [Compound 1871, N-[(2-amino-3-pyridyl)sulfonyl]-6-(2,4-dimethylphenyl)-2-[(4S)-2,2,4-trimethylpyrrolidin-1-yl]pyridine-3-carboxamide]
14 | +++ (“+++” means <3 uM) | COc1ncc(-c2ccc(C(=O)NS(=O)(=O)c3nccnc3N)c(Oc3ccc(C)cc3C)n2)cc1C [Compound 893, N-(3-aminopyrazin-2-yl)sulfonyl-2-(2,4-dimethylphenoxy)-6-(6-methoxy-5-methyl-3-pyridyl)pyridine-3-carboxamide]

The remaining lines, values behind:

Row | Structure (SMILES) | EC30
15 | CC(C)COc1cc(F)cc(-c2ccc(C(=O)NS(=O)(=O)c3cccnc3N)c(N3C[C@H](C)CC3(C)C)n2)c1 [Compound 1444, N-[(2-amino-3-pyridyl)sulfonyl]-6-(3-fluoro-5-isobutoxy-phenyl)-2-[(4R)-2,2,4-trimethylpyrrolidin-1-yl]pyridine-3-carboxamide] | +++ (“+++” means <3 uM)
16 | CCOc1cccc2c1CN(Cc1cc(F)cc(OCC(C)C)c1)C2(C)C(=O)NS(=O)(=O)c1cccc(N)n1 (centres unmarked) [Compound 1681, N-[(6-amino-2-pyridyl)sulfonyl]-4-ethoxy-2-[(3-fluoro-5-isobutoxy-phenyl)methyl]-1-methyl-isoindoline-1-carboxamide] | +++ (“+++” means <3 uM)
17 | CC(C)COc1cc(F)cc(-c2ccc(C(=O)NS(=O)(=O)c3cccc(N)n3)c(OC3CCC3)n2)c1 [Compound 1580, N-[(6-amino-2-pyridyl)sulfonyl]-2-(cyclobutoxy)-6-(3-fluoro-5-isobutoxy-phenyl)pyridine-3-carboxamide] | +++ (“+++” means <3 uM)
18 | CCOc1cccc2c1CN(Cc1c(C)cc(C)cc1C)C2(C)C(=O)NS(=O)(=O)c1ccccc1 (centres unmarked) [Compound 1539, N-(benzenesulfonyl)-4-ethoxy-1-methyl-2-[(2,4,6-trimethylphenyl)methyl]isoindoline-1-carboxamide] | +++ (“+++” means <3 uM)
19 | COc1cc(OC)cc(-c2ccc(C(=O)NS(=O)(=O)c3ccc[nH]c3=O)c(N3C[C@@H](C)CC3(C)C)n2)c1 [Compound 1878, 6-(3,5-dimethoxyphenyl)-N-[(2-oxo-1H-pyridin-3-yl)sulfonyl]-2-[(4S)-2,2,4-trimethylpyrrolidin-1-yl]pyridine-3-carboxamide] | ++ (“++” means between 3 uM and 10 uM)
20 | CC(C)CCOc1ccc(-c2ccc(C(=O)NS(=O)(=O)c3cccc(N)n3)c(N3CC(C)CC3(C)C)n2)cn1 (centres unmarked) [Compound 848, N-[(6-amino-2-pyridyl)sulfonyl]-6-(6-isopentyloxy-3-pyridyl)-2-(2,2,4-trimethylpyrrolidin-1-yl)pyridine-3-carboxamide] | +++ (“+++” means <3 uM)
21 | Cc1cc(C)c(Oc2nc(-c3ccc4c(c3)CCO4)ccc2C(=O)NS(=O)(=O)c2cccc(N)n2)c(C)c1 [Compound 1048] | +++ (“+++” means <3 uM)
22 | CC(C)COc1cc(F)cc(-c2ccc(C(=O)NS(=O)(=O)c3ccn[nH]3)c(N3CCC(C)(C)CC3)n2)c1 [Compound 1110, 2-(4,4-dimethyl-1-piperidyl)-6-(3-fluoro-5-isobutoxy-phenyl)-N-(1H-pyrazol-5-ylsulfonyl)pyridine-3-carboxamide] | +++ (“+++” means <3 uM)
23 | CC1CN(c2ncccc2C(=O)NS(=O)(=O)c2cccc(Nc3ccc(OC(F)(F)F)cc3)n2)C(C)(C)C1 (centres unmarked) [Compound 1977, N—[[6-[4-(trifluoromethoxy)anilino]-2-pyridyl]sulfonyl]-2-(2,2,4-trimethylpyrrolidin-1-yl)pyridine-3-carboxamide] | +++ (“+++” means <3 uM)
24 | Cc1cc(C)c(Oc2nc3c(cc2C(=O)NS(=O)(=O)c2ccc[nH]c2=O)CCC(C)(C)C3)c(C)c1 [Compound 1199, 7,7-dimethyl-N-[(2-oxo-1H-pyridin-3-yl)sulfonyl]-2-(2,4,6-trimethylphenoxy)-6,8-dihydro-5H-quinoline-3-carboxamide] | ++ (“++” means between 3 uM and 10 uM)
25 | CCC(Oc1nc(-c2cc(F)cc(OCC(C)C)c2)ccc1C(=O)NS(=O)(=O)c1cccc(N)n1)c1ccccc1 (centres unmarked) [Compound 1068, N-[(6-amino-2-pyridyl)sulfonyl]-6-(3-fluoro-5-isobutoxy-phenyl)-2-(1-phenylpropoxy)pyridine-3-carboxamide] | +++ (“+++” means <3 uM)
26 | CC(C)COc1cc(F)cc(-c2ccc(C(=O)NS(=O)(=O)c3ccccc3)c(N3C[C@H](C)CC3(C)C)n2)c1 [Compound 1396, N-(benzenesulfonyl)-6-(3-fluoro-5-isobutoxy-phenyl)-2-[(4R)-2,2,4-trimethylpyrrolidin-1-yl]pyridine-3-carboxamide] | +++ (“+++” means <3 uM)
27 | CC(C)Oc1ccccc1-c1ccc(C(=O)NS(=O)(=O)N2CC[C@H](N)C2)c(N2C[C@@H](C)CC2(C)C)n1 [Compound 1897, N-[(3S)-3-aminopyrrolidin-1-yl]sulfonyl-6-(2-isopropoxyphenyl)-2-[(4S)-2,2,4-trimethylpyrrolidin-1-yl]pyridine-3-carboxamide] | +++ (“+++” means <3 uM)
28 | CC(C)c1cccc(-c2ccc(C(=O)NS(=O)(=O)c3cccnc3N)c(N3C[C@@H](C)CC3(C)C)n2)c1 [Compound 1991, N-[(2-amino-3-pyridyl)sulfonyl]-6-(3-isopropylphenyl)-2-[(4S)-2,2,4-trimethylpyrrolidin-1-yl]pyridine-3-carboxamide] | +++ (“+++” means <3 uM)
29 | CCOc1cc(C)cc(-c2cnc(N3CC(C)CC3(C)C)c(C(=O)NS(=O)(=O)c3cccc(N)n3)c2)c1 (centres unmarked) [Compound 1843, N-[(6-amino-2-pyridyl)sulfonyl]-5-(3-ethoxy-5-methyl-phenyl)-2-(2,2,4-trimethylpyrrolidin-1-yl)pyridine-3-carboxamide] | +++ (“+++” means <3 uM)
